The values below come from patent US20090076120A1, “Crystal of Aminopyrrolidine Derivative and Production Method Thereof” (TEIJIN PHARMA LIMITED, priority 2005, published 2009).

Structures are written as SMILES. “Also recorded” adds a separate entry of the source.

Data set [1] is described as follows: Storage stability comparison in a thermostatic chamber (HPLC purity, XRD crystal form). It counts as physicochemical. Conditions: for Purity: HPLC. An excerpt:
Crystal A, crystal B and amorphous form of (R)-3-[2-(2-amino-5-trifluoromethoxybenzamido)acetamido]-1(6-methylindol-3-ylmethyl)pyrrolidine in the amount of 1.50 g, 1.50 g and 0.30 g, respectively were each placed in a transparent glass vial. They were simply covered by filter paper and kept in a thermostatic chamber. Samples were serially extracted for HPLC analysis and the appearance was also observed. Transition of crystal form was monitored by XRD analysis at the point of 163 hrs (only for crystals A and B) and 15 days (for all the samples) from the start. The “time” means storage time. The “temperature” is the preset temperature of the thermostatic chamber used for the storage, which was jumped up at 163 hrs from the start.

Data set [2] in a line: Transition of crystal B into crystal A in ethanol/water suspension (HPLC, XRD). Format: physicochemical. Conditions: crystal A versus crystal B. The procedure: Five grams of (R)-3-[2-(2-amino-5-trifluoromethoxybenzamido)acetamido]-1-(6-methylindol-3-ylmethyl)pyrrolidine was suspended in 232 mL of ethanol/water (1.22/1), and the suspension was stirred for 3 hours in an oil bath at 20° C. The precipitated crystals were filtered off and dried at 50° C. under reduced pressure. Yield Amount: 4.25 g (yield: 85%)
HPLC pattern and XRD diagram were measured to confirm that the resulting crystal was crystal A of (R)-3-[2-(2-amino-5-trifluoromethoxybenzamido)acetamido]-1-(6-methylindol-3-ylmethyl)pyrrolidine.

Where [3] appears, read: storage 192 hrs, 60 °C from 163 hrs.
[4] abbreviates: storage 240 hrs, 60 °C from 163 hrs.
Setting [5] is: storage 15 days, 60 °C from 163 hrs.
Setting [6] is: storage time: initial value, 40 °C, glass vial covered by filter paper.
Setting [7] is: storage 163 hrs at 40 °C (temperature then raised 40 to 60 °C).

In the case of `Cc1ccc2c(CN3CC[C@@H](NC(=O)CNC(=O)c4cc(OC(F)(F)F)ccc4N)C3)c[nH]c2c1` [amorphous form, (R)-3-[2-(2-amino-5-trifluoromethoxybenzamido)acetamido]-1-(6-methylindol-3-ylmethyl)pyrrolidine], the “Storage stability (degradation), in words” value in data set [1] (conclusion from Table 5) is “degradation of amorphous form; also recorded: less storage stability compared to the crystal forms”. Moreover, the Purity turned out to be 97.78% in data set [1] (storage 24 hrs, 40 °C); 97.55% in data set [1] (storage 71 hrs, 40 °C); 97.25% in data set [1] (storage 144 hrs, 40 °C); 95.88% in data set [1] (setting [3]); 94.33% in data set [1] (setting [4]); 91.14% in data set [1] (setting [5]). The compound further yielded a Purity in data set [1] (setting [6]) of 98.03%. Also, the “Crystal form (XRD)” value in data set [1] (setting [5]) is recorded as “amorphous”.
For the compound `Cc1ccc2c(CN3CC[C@@H](NC(=O)CNC(=O)c4cc(OC(F)(F)F)ccc4N)C3)c[nH]c2c1` [Crystal A, (R)-3-[2-(2-amino-5-trifluoromethoxybenzamido)acetamido]-1-(6-methylindol-3-ylmethyl)pyrrolidine], the Purity in data set [1] (storage 24 hrs, 40 °C) amounted to 98.89%; in data set [1] (storage 71 hrs, 40 °C), 98.88%; in data set [1] (storage 144 hrs, 40 °C), 98.80%; in data set [1] (setting [3]), 98.82%; in data set [1] (setting [4]), 98.82%; in data set [1] (setting [5]), 98.75%. The same compound yielded a Purity in data set [1] (setting [6]) of 98.79%. Moreover, the “Crystal form (XRD)” value in data set [1] (setting [7]) and in data set [1] (setting [5]) was “Crystal A” throughout. Also, the “Relative stability of the two crystal forms” value in data set [2] was “higher than that of crystal B”.
As to `Cc1ccc2c(CN3CC[C@@H](NC(=O)CNC(=O)c4cc(OC(F)(F)F)ccc4N)C3)c[nH]c2c1` [Crystal B, (R)-3-[2-(2-amino-5-trifluoromethoxybenzamido)acetamido]-1-(6-methylindol-3-ylmethyl)pyrrolidine], the Purity in data set [1] (storage 24 hrs, 40 °C) is reported as 99.22%; in data set [1] (storage 71 hrs, 40 °C), 99.31%; in data set [1] (storage 144 hrs, 40 °C) it was 99.22%; in data set [1] (setting [3]), 99.28%; in data set [1] (setting [4]) it was 99.19%; in data set [1] (setting [5]), 99.28%. In data set [1] (setting [6]), this compound yielded a Purity of 99.20%. Further, the “Crystal form (XRD)” value in data set [1] (setting [7]) and in data set [1] (setting [5]) was “Crystal B” each time.
